Measured values taken from patent publication US20240188561A1, “ADDITIVES FOR ENHANCING THE PESTICIDAL EFFECTIVENESS OF PESTICIDAL MICROORGANISMS” (priority 2021, published 2024).

What was measured:
Experiment in all cases: Additive compatibility with microbial growth (growth slope by OD 620 nm)
Assay type in all cases: cell-based
Details in all cases: additive 0.01-5 %, exposed 4 hours at 16° C., then tryptic soy broth 30° C., slope compared to 0% sample
[1] = tested on: Pseudomonas fluorescens
[2] = tested on: Bacillus firmus
[3] = tested on: Bacillus subtilis
[4] = tested on: Bacillus amyloliquefaciens

Molecule	Influence of additive on microbial growth slope (compatibility), Pseudomonas fluorescens [1]	Influence of additive on microbial growth slope (compatibility), Bacillus firmus [2]	Influence of additive on microbial growth slope (compatibility), Bacillus subtilis [3]	Influence of additive on microbial growth slope (compatibility), Bacillus amyloliquefaciens [4]
Magnesium Oleate [xviii-1]	S	S	S	
C12-C14 dimethyl amide [xv-3]		S	S	S
Castor Oil POE 16 [vi-3]	N	N	N	N
2-propylheptanol Alkoxylate with 5 moles EO [xi-4]	S	S	S	S
Olleyl-Cetyl alcohol (80% Oleyl) [xvi-2]	N	S	N	N
2-propylheptanol Alkoxylate with 7 moles EO [xi-5]	S	S	S	S
Isodecyl alcohol POE6 phosphate ester [xix-3]	S	S	S	S
Tridecyl alcohol POE 10 phosphate ester [xix-1]	S	S	S	S
C8-C10 alkylpolyglycoside [iv-1]	N	N	N	N
C12-C16 alkylpolyglycoside [iv-2]	N	S	S	S
Castor Oil POE 40 [vi-4]		N	N	N
CC(O)C(=O)N(C)C (stereo not shown) [xv-1, Dimethyl lactamide]	N	N	S	S
PEG 400 monolaurate [v-1]	S		N	N
Tridecyl alcohol POE 3 [xi-1]	S	S	S	S
Sodium Tallowate [xviii-2]	S			
2-propylheptanol POE 5 [xi-3]	S	S	S	S
Soybean Oil POE 10 [vi-1]	E (E represents an Enhancing result)	S	N	N
Sodium Lauryl ether sulfate [xvii-1]	S	S	S	S
Olleyl-Cetyl alcohol (90% Oleyl) [xvi-3]	S	S	S	S
C8-C10 fatty alcohol [xvi-1]	S	S	S	S
PEG 400 monooleate [v-2]	S		N	N
Tallow amine POE20 [xiii-2]		S	S	S
Sorbitan trioleate POE 20 [xii-4]	S	S	N	S
Sorbitan monooleate [xii-1]	E (E represents an Enhancing result)	S	S	S
Tridecyl alcohol POE 9 [xi-2]	S	S	S	S
Dibutyl Naphthalene Sulfonate, Sodium [viii-1]			E (E represents an Enhancing result)	E (E represents an Enhancing result)
Tallow amine POE15 [xiii-1]	E (E represents an Enhancing result)	S	S	S
